“Also recorded” adds a separate entry of the source.
tested on: Shaker class voltage-gated potassium ion channels; assay: not given; settings: tetraethylammonium 5 mM alone; depolarizing pulse +60 mV
Description: At a depolarizing pulse of +60 mV, the steady state blockade of current caused by channel-blockers was measured as the current in the presence of the channel-blocker divided by the current in the absence of the channel-blocker.

SMILES | steady state blockade of current [%]
CC[N+](CC)(CC)CC [tetraethylammonium] | 15

same assay, conditions: tetraethylammonium 5 mM in the presence of 10 mM 2-benzoylbenzoic acid; +60 mV

SMILES | steady state blockade of current [%]
CC[N+](CC)(CC)CC [tetraethylammonium] | 16

tested on: Drosophila Shaker H4 potassium ion channels; assay: Patch voltage clamp recording, time course of channel closure (deactivation); settings: inside-out excised patch voltage clamp, FIG. 3
Description: Standard patch recording methods were used to record potassium channel currents from the transfected cells (Hamill, O. P., Marty, A., Neher, E., Sakmann, B., and Sigworth, F. J., Pfluegers Arch(1981), 391:85, the entire teachings of which are incorporated herein by reference). If expression was sufficiently high, the excised inside-out or excised outside-out recording configurations was used; otherwise the whole cell recording configuration was used. […] Standard extracellular saline was used in the recording pipette, and standard intracellular saline was perfused on the exposed side, or bath side, of the membrane. Test compounds were added to the intracellular saline at the concentration specified.
For recording the time course of channel activation and deactivation, voltage clamp steps were applied from a resting potential of -80 to -100 mV to an activation potential of between -60 and +60 mV; after these activating steps (lasting 5-100 ms in duration), the voltage was returned to a potential of between -120 and -60 mV to monitor the time course of closure, or de-activation, of the channels. Standard experimental solutions contained, in mM: 150 NaCl, 10 KCl, 3 CaCl2, 1 MgCl2, and 10 HEPES, at pH 7.4 in the pipette solution; and 160 KCl, 0.5 MgCl2, 1 EGTA, and 10 HEPES, at pH 7.4 in the bath solution. Solutions with Cd^2+ contained no EGTA.
In Table I, II and III, the time course of closure of Drosophila Shaker H4 potassium ion channels was measured in the presence of a test compound and compared to the time course of closure in the absence of a test compound.

SMILES | effect on the maximal level of outward or inward current
O=C(O)c1ccc([N+](=O)[O-])cc1Oc1cccc([N+](=O)[O-])c1 | little or no effect

same assay, conditions: inside-out excised patch voltage clamp, FIG. 3 and 4

SMILES | effect on the closing of the ion channel
O=C(O)c1ccc([N+](=O)[O-])cc1Oc1cccc([N+](=O)[O-])c1 | slows the closing of the ion channel
CCOc1ccc(Nc2cc([N+](=O)[O-])ccc2C(=O)O)cc1 [N-(4-ethoxyphenyl)-4-nitro anthranilic acid] | speeds the closing of the ion channel

same assay, conditions: inside-out excised patch voltage clamp, FIG. 4

SMILES | reduction in the maximal level of outward or inward current [%]
CCOc1ccc(Nc2cc([N+](=O)[O-])ccc2C(=O)O)cc1 [N-(4-ethoxyphenyl)-4-nitro anthranilic acid] | < 20

same assay, conditions: shaker h4 channel patch, 500 µM

SMILES | Approximate Increase in Time Course of Closure
Cc1ccc(Sc2ccccc2C(=O)O)c(S(N)(=O)=O)c1 [2-sulfamide-4-methyl-2'-carboxydiphenyl sulfide] | < 2 X
Nc1ccccc1C(=O)c1ccccc1C(=O)O [2-aminobenzophenone-2-carboxylic] | 2 X
COc1cccc(Oc2c(OC)cccc2C(=O)O)c1 [2-(3-methoxyphenoxy)-3-methoxybenzoic acid] | < 2 X
Nc1cc(C(=O)c2ccccc2C(=O)O)ccc1Cl [2-(3-amino-4-chlorobenzoyl)benzoic acid] | 2 X
O=C(O)c1ccccc1C(=O)c1ccc(Cl)c([N+](=O)[O-])c1 [2-(4-chloro-3-nitrobenzoyl)benzoic acid] | 2 X
Nc1cccc(C(=O)O)c1Oc1ccc(Cl)cc1 [2-(4-chlorophenoxy)-3-aminobenzoic acid] | 9 X
CC(C(=O)O)c1cccc(Oc2ccccc2)c1 (centres unmarked) [fenoprofen, reference compound] | 2.2 X
COc1ccc(Oc2c(C(=O)O)cccc2[N+](=O)[O-])cc1 [2-(4-methoxyphenoxy)-3-nitrobenzoic acid] | 1.5 X
CC(=O)Nc1ccc(C=Cc2ccc([N+](=O)[O-])cc2S(=O)(=O)O)c(S(=O)(=O)O)c1 [4-nitro-4'-acetamide-2,2'-disulfonate stilbene] | 2 X
O=C(O)c1ccccc1Oc1cccc([N+](=O)[O-])c1 [2-(3-nitrophenoxy)benzoic acid] | 3-4 X
O=C(O)c1ccccc1[S+]([O-])c1ccccc1 (centres unmarked) [1-carboxydiphenyl sulfoxide] | 2.2 X
O=C(O)c1ccccc1C(=O)c1ccc(Cl)cc1 [2-(4-chlorobenzoyl)benzoic acid] | 2 X
O=C(O)c1ccccc1C(=O)c1ccccc1 [2-benzoylbenzoic acid] | 2.5 X
O=C(O)c1cccnc1Nc1cccc(C(F)(F)F)c1 [niflumic acid, reference compound] | 2.4 X
Cc1ccc(C(=O)c2ccccc2C(=O)O)cc1 [2-(p-toluoyl)benzoic] | 2 X
Nc1ccc(C(=O)c2ccccc2C(=O)O)cc1[N+](=O)[O-] [2-(4-amino-3-nitro-benzoyl)benzoic acid] | ≥ 2 X

same assay, conditions: test compound 0.5 mM; compared to closure in the absence of test compound

SMILES | Approximate Decrease in Time Course of Closure
CCOc1ccc(Nc2cc([N+](=O)[O-])ccc2C(=O)O)cc1 [N-(4-ethoxyphenyl)-4-nitro anthranilic acid] | 5-10 X
O=C(O)c1ccc(Br)cc1Oc1ccccc1 [4-bromo-2-(phenoxy) benzoic acid] | ≥ 2 X
CC(C(=O)O)c1ccc2c(c1)[nH]c1ccc(Cl)cc12 (centres unmarked) [Carprofen, reference compound] | 3.2 X
Cc1c(C)c(C)c(C(=O)c2ccccc2C(=O)O)c(C)c1C [2-(2,3,4,5,6-pentamethylbenzoyl) benzoic acid] | 2 X
Cc1ccc(Cl)c(Nc2ccccc2C(=O)O)c1Cl [Meclofenamic acid, reference compound] | 2.5 X
CCCCN(CCCC)c1ccc(C(=O)c2ccccc2C(=O)O)c(O)c1 [2-(4-dibutylamino-2-hydroxybenzoyl) benzoic acid] | 6.4 X
Nc1cc(Cl)ccc1Nc1ccccc1C(=O)O [N-(2-amino-4-chlorophenyl) anthranilic acid] | 2.4 X
COc1cccc(C(=O)c2cc(OC)ccc2C(=O)O)c1 [4-methoxy-2-(3-methoxy-benzoyl)-benzoic acid] | ≤ 2 X
O=C(O)c1c(Cl)c(Cl)c(Cl)c(Cl)c1C(=O)c1ccccc1 [2-benzoyl-3,4,5,6-tetrachloro-benzoic] | ≥ 2 X

tested on: Drosophila Shaker H4 potassium ion channels; assay: Application to intracellular (inside-out patch) versus extracellular (outside-out patch) side of the membrane; assay type: cell-based; settings: inside-out versus outside-out excised patch
Description: Compounds were applied to the intracellular side of the cell membrane by adding the compound to the solution bathing the exposed face of an excised inside-out patch containing Drosophila Shaker H4 potassium ion channels. Application to the extracellular side of the membrane was performed by adding the compound to the solution bathing the exposed face of an excised outside-out patch containing Drosophila Shaker H4 potassium ion channels.

SMILES | side of the cell membrane from which the compound is effective
O=C(O)c1ccccc1C(=O)c1ccccc1 [2-benzoylbenzoic acid] | effective from only one side of the membrane; also recorded: effective only from the intracellular side of the cell membrane

— patent US6291442A, “Pharmacological modulators of voltage-gated potassium ion channels” (The General Hospital Corporation, priority 1999, dated 2001)
